Experimental data as given in patent US9708305B2, “Substituted 1,2,3,4-tetrahydroisoquinoline derivatives for the treatment of hormone-dependent diseases” (UNIVERSITÉ LAVAL, priority 2013, dated 2017).
Where two headings read alike, the source gives them in different places. Blank lines part the entries; values can stand above or below the compound they belong to.

Legend:
steroid sulfatase (STS) = target: T1, steroid sulfatase (STS) (Homo sapiens, UniProt P08842); assay: Steroid sulfatase (STS) inhibition, [3H]-E1S to [3H]-E1, homogenate of transfected HEK-293 cells; format: biochemical; conditions: for inhibition of STS: homogenates of transfected HEK-293 cells
T1 construct: expressed in transfected cells; host or cells: HEK-293 cells stably transfected with STS (G418 selection), obtained from Dr. Van Luu-The; used as freeze-thaw homogenate
T1 sequence (P08842 22-583): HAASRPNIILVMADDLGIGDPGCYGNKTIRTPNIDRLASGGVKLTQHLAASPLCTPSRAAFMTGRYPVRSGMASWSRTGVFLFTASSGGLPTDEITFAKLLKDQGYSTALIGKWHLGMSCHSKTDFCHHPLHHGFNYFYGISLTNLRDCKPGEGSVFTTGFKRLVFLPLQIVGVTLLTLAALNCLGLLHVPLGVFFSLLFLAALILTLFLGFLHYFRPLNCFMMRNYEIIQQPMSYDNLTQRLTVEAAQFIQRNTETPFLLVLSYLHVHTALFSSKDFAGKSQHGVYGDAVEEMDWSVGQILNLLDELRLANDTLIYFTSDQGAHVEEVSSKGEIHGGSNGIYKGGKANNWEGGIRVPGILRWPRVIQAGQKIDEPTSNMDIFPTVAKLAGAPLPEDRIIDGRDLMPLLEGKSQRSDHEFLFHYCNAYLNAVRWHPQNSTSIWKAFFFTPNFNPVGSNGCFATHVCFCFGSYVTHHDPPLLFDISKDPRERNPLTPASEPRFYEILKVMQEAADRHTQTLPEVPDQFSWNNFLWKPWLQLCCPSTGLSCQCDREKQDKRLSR
Description: To test STS inhibition, we used homogenated HEK-293 cells overexpressing STS and evaluated the capacity of our compounds to inhibit the conversion of [^3H]-E1S into [^3H]-E1. […] This is outlined in FIG. 5.
An enzymatic assay previously described was used for the inhibition of the transformation of estrone sulfate (E1S) to estrone (E1) by STS.^72 Briefly, the transfected HEK-293 cells were homogenized by repeated (5 times) cycles of freezing (−80° C.) and thawing on ice (4° C.). The homogenates were then incubated for 2 h at 37° C. (shaking water bath) with or without inhibitors (0.01 μM-1 μM) in presence of [^3H]-E1S (9 nM), adjusted to 1 μM with E1S, in a Tris-acetate buffer (pH 7.4) containing 5 mM EDTA and 10% glycerol. After the incubation, 1 mL of xylene was added to each tube and the solutions were then centrifuged at 3000 rpm for 20 min to separate the organic ([^3H]-E1) and aqueous ([^3H]-E1S) phases. Once 500 μL of each phase was added to 10 mL of Biodegradable Counting Scintillant, the radioactivity of samples was recorded using a Wallac 1411 Liquid Scintillation Counter. The percentage of inhibition was determined by comparison with the control (buffer+homogenate+[^3H]-E1S) which was set to 0% of inhibition. IC50 value was obtained using GraphPad Prism 5 (GraphPad Software, La Jolla, Calif.).

MCF-7 (ER+) cells = assay: Proliferative (estrogenic) activity on MCF-7 (ER+) cells; format: cell-based; conditions: 7 days; for proliferation of MCF-7 (ER+) cells: 1 μM, control 100%
Description: The next step was to determine the presence or absence of estrogenic activity. To do so, cell proliferative assays were carried out on MCF-7 cells. […] Phenols of the corresponding sulfamate library 3-EO and 4-EO are referred to as library 3′-EO and library 4′-EO, respectively.
This cell assay was carried out according to a procedure previously described to determine the estrogenic activity of enzyme inhibitors on the growth of estrogen-sensitive MCF-7 cells.^77 All chemicals tested were first dissolved in DMSO and subsequent dilutions were done in the proper cell culture media. The final concentration of DMSO in the culture medium was 0.1% or less. 3-(4,5-dimethylthiazol-2-yl)-5-(3-carboxymethoxyphenyl)-2-(4-sulfophenyl)-2-H-tetrazolium (MTS) was used as an indirect colorimetric measurement of cell proliferation according to the manufacturer's instructions (Promega, Madison, Wis.). At the end of the treatments, 20 μL of MTS solution was added to each well (100 μL) and the MCF-7 cells were incubated 4 h at 37° C. The absorbance at 490 nm was then measured with a Thermo max microplate reader (Molecular Devices, Sunnyvale, Calif.). The control (culture media+DMSO) is set to 100% of cell proliferation.

T-47D cells [1] = assay: T-47D cell proliferation in presence of E2 (antiestrogenicity); format: cell-based; conditions: for inhibition at 1 µM: Homo sapiens, T47D, read-out: Breast cancer cells T-47D (ER+) Antagonist activity (%)
Description: (§1) CellTitter 96® Aqueous One Solution Cell Proliferation Assay was used as an indirect colorimetric measurement of cell proliferation according to the manufacturer's instructions. Briefly, after the treatments, 20 μL of MTS solution was added to each well (100 μL) of the plates and incubated at 37° C. for 2 h (Saos-2) or 4 h (T-47D). The absorbance at 490 nm was then measured with a Thermo max microplate reader (Molecular Devices, Sunnyvale, Calif.). The control (culture media+DMSO) is set to 100% of cell proliferation.
(§2) The cells were plated in 96-well plates at a density of 3 000 cells/well and allowed to attach for 48 h. After this pre-incubation, the inhibitors and the reference compounds diluted in fresh culture media were added to the wells and replaced every 2 days for 7 days of treatment.

[2] = tested on: osteoblast-like Saos-2 cells; assay: Saos-2 cell proliferation, MTS; format: cell-based; conditions: for Saos-2 cell proliferation, dose response: 1 nM to 1 μM; for Saos-2 cell proliferation, dose response / Saos-2 cell proliferation: 7 days; for Bone cells Saos-2 (ER+) SERM effect Proliferative activity (%): in percentage of control (100%; 0.1 nM of estradiol); for Saos-2 cell proliferation: control 100%
Excerpt: First, we wanted to evaluate their effect on cell proliferation. […] This is outlined in FIG. 8A. […] One of the main roles of osteoblasts in bone tissue is to construct a calcified extracellular matrix.^15 As such, bone formation is not principally due to osteoblasts proliferation but rather osteoblasts maturation into mature osteocytes. […] This is outlined in FIG. 8B.
as §1
Saos-2 cells were suspended in phenol-red free McCoy's 5A medium supplemented with 10% charcoal-stripped FBS, penicillin (100 IU/mL) and streptomycin (100 μg/mL). The cells were seeded in 96-well plates at a density of 3 000 cells/well and allowed to attach. After 24 h, the inhibitors and the reference compounds diluted in fresh culture media were added to the wells and replaced every 2 days for 7 days of treatment.

[3] = tested on: alkaline phosphatase (ALP) activity in Saos-2 cells; assay: Alkaline phosphatase (ALP) activity in Saos-2 cells; format: cell-based
Description: ALP is an enzyme that releases inorganic phosphate from different intracellular substrates such as pyrophosphate and pyridoxal 5′-phosphate.^63 The inorganic phosphate is used in the formation of hydroxyapatite crystals which are then inserted in the extracellular protein scaffold to form the solid part of bone tissue.
Saos-2 cells were treated similarly as reported in the cell proliferation assay. The cells were seeded at a density of 2 000 cells/well and were treated with the inhibitors and the reference compounds for 3 days. The alkaline phosphatase (ALP) activity was measured using Sensolyte® pNPP Alkaline Phosphatase Assay Kit *Colorimetric* (AnaSpec, Fremont, Calif.) following the manufacturer's protocol. Briefly, after the 3 days of treatment, the cells were washed twice with washing buffer (provided with the kit) and lysed with 0.2% Triton X-100. The cell lysates were centrifuged and the supernatants were used to determine the ALP activity. The supernatants were deposed in a 96-well plate and incubated 30 min with a p-nitrophenyl phosphate solution (provided with the kit). The absorbance at 405 nm was measured with a Thermo max microplate reader (Molecular Devices, Sunnyvale, Calif.). The control (culture media+DMSO) is set to 100% of alkaline phosphatase activity.

T-47D cells [4] = assay: T-47D cell proliferation (estrogenicity / cytotoxicity), MTS; format: cell-based; conditions: for Breast cancer cells T-47D (ER+) Agonist activity (%) / activity at 1 µM: 1 μM; for Breast cancer cells T-47D (ER+) Agonist activity (%): in % of control (100%; 0.1 nM of estradiol); for estrogenicity / cytotoxicity on T-47D cells / activity at 0.01 µM: 0.01 μM; for estrogenicity / cytotoxicity on T-47D cells: 0.1 μM and 1 μM; for activity at 0.01 µM / activity at 0.1 µM / activity at 1 µM: Homo sapiens, T47D, control cells set to 100%, mean±SD
Description: The library of phenolic compounds described above was tested on estrogen-sensitive breast cancer T-47D cells.
In Table 1, cell proliferation of control cells is set to 100%. Results are expressed as mean±SD of one experiment in triplicate.
as §1, §2

[5] = homogenated HEK-293 cells overexpressing STS, [3H]-E1S to [3H]-E1, read-out: STS inhibition IC50
[6] = transformation of E1S into E1 in homogenate of HEK-293 cells transfected with STS, read-out: Steroid Sulfatase Inhibition IC50

SMILES: NS(=O)(=O)Oc1ccc2c(c1)CN(C(=O)c1ccc(CN(Cc3ccccn3)Cc3ccco3)cc1)CC2 [Compound 32, 2-[(4-{[(furan-2-ylmethyl)(pyridin-2-ylmethyl)amino]methyl}phenyl)carbonyl]-1,2,3,4-tetrahydroisoquinolin-7-yl sulfamate]
IC50 (steroid sulfatase (STS); [5]): 16.6 nM

SMILES: O=C(c1ccc(CN(Cc2ccccc2)Cc2ccco2)cc1)N1CCc2ccc(O)cc2C1 [3′-EO-11]
stimulation of MCF-7 cell growth (MCF-7 (ER+) cells; 0.01 μM, 0.1 μM and 1 μM): did not stimulate

SMILES: O=C(c1ccc(CN(CCO)Cc2ccccc2)cc1)N1CCc2ccc(O)cc2C1 [3′-EO-02]
proliferation of MCF-7 (ER+) cells (MCF-7 (ER+) cells): 135%

SMILES: CCN(Cc1ccc(Br)cc1)Cc1ccc(C(=O)N2CCc3ccc(O)cc3C2)cc1 [3′-EO-13]
proliferation of MCF-7 (ER+) cells (MCF-7 (ER+) cells): 177%

SMILES: CCN(Cc1ccc(C(=O)N2CCc3ccc(O)cc3C2)cc1)Cc1cccc(Br)c1 [3′-EO-12]
proliferation of MCF-7 (ER+) cells (MCF-7 (ER+) cells): 118%

SMILES: CN(C)CCCN(Cc1ccccc1)Cc1ccc(C(=O)N2CCc3ccc(O)cc3C2)cc1 [3′-EO-05]
proliferation of MCF-7 (ER+) cells (MCF-7 (ER+) cells): 126%

Further lines, with some results ahead:

IC50 (steroid sulfatase (STS); [5]): 3.9 nM
SMILES: COc1ccc(CN(Cc2ccc(C(=O)N3CCc4ccc(OS(N)(=O)=O)cc4C3)cc2)Cc2ccccn2)cc1 [Compound 34, 2-[(4-{[(4-methoxybenzyl)(pyridin-2-ylmethyl)amino]methyl}phenyl)carbonyl]-1,2,3,4-tetrahydroisoquinolin-7-yl sulfamate]

IC50 (steroid sulfatase (STS); [6]): 3.9 nM
SMILES: Cc1ccc(CN(Cc2ccc(C(=O)N3CCc4ccc(OS(N)(=O)=O)cc4C3)cc2)Cc2ccco2)s1 [Compound 33, 2-{[4-({(furan-2-ylmethyl)[(5-methylthiophen-2-yl)methyl]amino}methyl)phenyl]carbonyl}-1,2,3,4-tetrahydroisoquinolin-7-yl sulfamate]
inhibition at 1 µM (T-47D cells [1]): 25%
Saos-2 cell proliferation, dose response [2]: apparent dose-dependent response
Bone cells Saos-2 (ER+) SERM effect Proliferative activity (%) ([2]; 0.1 μM): 33%
Saos-2 cell proliferation ([2]; 1 μM): ~150%
Bone cells Saos-2 (ER+) SERM effect Proliferative activity (%) ([2]; 1 μM): 211%
Bone cells Saos-2 (ER+) SERM effect Alkaline phosphatase activity (%) ([3]; 0.1 nM): 48%
Breast cancer cells T-47D (ER+) Agonist activity (%) (T-47D cells [4]): 0%

inhibition of STS (steroid sulfatase (STS)): no significant inhibition
SMILES: COc1ccc(CN(Cc2ccc(C(=O)N3CCc4ccc(O)cc4C3)cc2)Cc2ccccn2)cc1 [Compound 31, (7-hydroxy-3,4-dihydroisoquinolin-2(1H)-yl)(4-{[(4-methoxybenzyl)(pyridin-2-ylmethyl)amino]methyl}phenyl)methanone]
estrogenicity / cytotoxicity on T-47D cells (T-47D cells [4]): neither estrogenicity nor cytotoxicity
activity at 0.01 µM (T-47D cells [4]): 105.6 ± 0.6%
activity at 0.1 µM (T-47D cells [4]): 105 ± 7.4%
activity at 1 µM (T-47D cells [4]): 101 ± 7.9%

inhibition of STS (steroid sulfatase (STS)): no significant inhibition
SMILES: O=C(c1ccc(CN(Cc2ccccn2)Cc2ccco2)cc1)N1CCc2ccc(O)cc2C1 [Compound 25, (4-{[(furan-2-ylmethyl)(pyridin-2-ylmethyl)amino]methyl}phenyl)(7-hydroxy-3,4-dihydroisoquinolin-2(1H)-yl)methanone]
estrogenicity / cytotoxicity on T-47D cells (T-47D cells [4]): neither estrogenicity nor cytotoxicity
activity at 0.01 µM (T-47D cells [4]): 104 ± 2.3%
activity at 0.1 µM (T-47D cells [4]): 103 ± 2.5%
activity at 1 µM (T-47D cells [4]): 104 ± 6.5%

inhibition of STS (steroid sulfatase (STS)): no significant inhibition
IC50 (steroid sulfatase (STS); [6]): > 1000 nM
SMILES: Cc1ccc(CN(Cc2ccc(C(=O)N3CCc4ccc(O)cc4C3)cc2)Cc2ccco2)s1 [Compound 29, [4-({(furan-2-ylmethyl)[(5-methylthiophen-2-yl)methyl]amino}methyl)phenyl](7-hydroxy-3,4-dihydroisoquinolin-2(1H)-yl)methanone]
blockade of the stimulation induced by E2 in T-47D cells (T-47D cells [1]; 5 μM, E2 0.1 nM): approximately 84%
inhibition at 1 µM (T-47D cells [1]): 46%
Saos-2 cell proliferation, dose response [2]: apparent dose-dependent response
Bone cells Saos-2 (ER+) SERM effect Proliferative activity (%) ([2]; 0.1 μM): 175%
Saos-2 cell proliferation ([2]; 1 μM): ~150%
Bone cells Saos-2 (ER+) SERM effect Proliferative activity (%) ([2]; 1 μM): 250%
Bone cells Saos-2 (ER+) SERM effect Alkaline phosphatase activity (%) ([3]; 0.1 nM): 114%
stimulation of ALP activity in presence of ICI-164,384 or MPP + PHTPP ([3]; 0.1 nM compound, antagonists 1 μM, 3 days): completely blocked the stimulation
ALP activity in Saos-2 cells ([3]; 0.1 nM, 3 days, control 100%): 138%
estrogenicity / cytotoxicity on T-47D cells (T-47D cells [4]): neither estrogenicity nor cytotoxicity
Breast cancer cells T-47D (ER+) Agonist activity (%) (T-47D cells [4]): 0%
activity at 0.01 µM (T-47D cells [4]): 97.1 ± 2.6%
activity at 0.1 µM (T-47D cells [4]): 103 ± 1.8%
activity at 1 µM (T-47D cells [4]): 96.8 ± 2.2%
